Source: the OligoGym collection
Oligonucleotides are given in HELM: sugar(base)linkage, 5' to 3'; d 2'-deoxyribose, r ribose, m 2'-O-methylribose, p phosphate. ss, as = sense and antisense strand

Biological target: UBE2N
Test: reporter assay of Huesken 2005
Settings: siRNA
Note: test concentration or dose not given here.

Compared with “RNA1{r(G)p.r(G)p.r(U)p.r(C)p.r(C)p.r(C)p.r(C)p.r(A)p.r(G)p.r(C)p.r(A)p.r(C)p.r(U)p.r(G)p.r(C)p.r(A)p.r(G)p.r(A)p.r(U)p.d(T)p.d(T)}|RNA2{r(A)p.r(U)p.r(C)p.r(U)p.r(G)p.r(C)p.r(A)p.r(G)p.r(U)p.r(G)p.r(C)p.r(U)p.r(G)p.r(G)p.r(G)p.r(G)p.r(A)p.r(C)p.r(C)p.d(A)p.d(C)}$$$RNA1{StrandType:ss}|RNA2{StrandType:as}$”, “RNA1{r(A)p.r(U)p.r(G)p.r(U)p.r(G)p.r(G)p.r(U)p.r(C)p.r(A)p.r(U)p.r(U)p.r(G)p.r(C)p.r(U)p.r(G)p.r(G)p.r(C)p.r(C)p.r(C)p.d(T)p.d(T)}|RNA2{r(G)p.r(G)p.r(G)p.r(C)p.r(C)p.r(A)p.r(G)p.r(C)p.r(A)p.r(A)p.r(U)p.r(G)p.r(A)p.r(C)p.r(C)p.r(A)p.r(C)p.r(A)p.r(U)p.d(G)p.d(A)}$$$RNA1{StrandType:ss}|RNA2{StrandType:as}$” is lower in normalised inhibition (eCFP-eYFP dual reporter): 62.2% for the first, 47.1% for the second.

Going from “RNA1{r(G)p.r(C)p.r(C)p.r(G)p.r(A)p.r(A)p.r(C)p.r(C)p.r(A)p.r(G)p.r(A)p.r(U)p.r(G)p.r(A)p.r(G)p.r(A)p.r(G)p.r(C)p.r(A)p.d(T)p.d(T)}|RNA2{r(U)p.r(G)p.r(C)p.r(U)p.r(C)p.r(U)p.r(C)p.r(A)p.r(U)p.r(C)p.r(U)p.r(G)p.r(G)p.r(U)p.r(U)p.r(C)p.r(G)p.r(G)p.r(C)p.d(T)p.d(T)}$$$RNA1{StrandType:ss}|RNA2{StrandType:as}$” to “RNA1{r(A)p.r(U)p.r(A)p.r(G)p.r(A)p.r(A)p.r(A)p.r(C)p.r(A)p.r(G)p.r(C)p.r(U)p.r(A)p.r(G)p.r(A)p.r(G)p.r(C)p.r(A)p.r(U)p.d(T)p.d(T)}|RNA2{r(A)p.r(U)p.r(G)p.r(C)p.r(U)p.r(C)p.r(U)p.r(A)p.r(G)p.r(C)p.r(U)p.r(G)p.r(U)p.r(U)p.r(U)p.r(C)p.r(U)p.r(A)p.r(U)p.d(G)p.d(G)}$$$RNA1{StrandType:ss}|RNA2{StrandType:as}$”, the normalised inhibition (eCFP-eYFP dual reporter) rises from 82.6% to 91.8%.

First: RNA1{r(U)p.r(C)p.r(C)p.r(C)p.r(A)p.r(A)p.r(U)p.r(C)p.r(C)p.r(A)p.r(G)p.r(A)p.r(U)p.r(G)p.r(A)p.r(U)p.r(C)p.r(C)p.r(A)p.d(T)p.d(T)}|RNA2{r(U)p.r(G)p.r(G)p.r(A)p.r(U)p.r(C)p.r(A)p.r(U)p.r(C)p.r(U)p.r(G)p.r(G)p.r(A)p.r(U)p.r(U)p.r(G)p.r(G)p.r(G)p.r(A)p.d(G)p.d(C)}$$$RNA1{StrandType:ss}|RNA2{StrandType:as}$
Second: RNA1{r(G)p.r(A)p.r(A)p.r(G)p.r(A)p.r(C)p.r(C)p.r(A)p.r(A)p.r(C)p.r(G)p.r(A)p.r(A)p.r(G)p.r(C)p.r(C)p.r(C)p.r(A)p.r(A)p.d(T)p.d(T)}|RNA2{r(U)p.r(U)p.r(G)p.r(G)p.r(G)p.r(C)p.r(U)p.r(U)p.r(C)p.r(G)p.r(U)p.r(U)p.r(G)p.r(G)p.r(U)p.r(C)p.r(U)p.r(U)p.r(C)p.d(C)p.d(A)}$$$RNA1{StrandType:ss}|RNA2{StrandType:as}$
The normalised inhibition (eCFP-eYFP dual reporter) of the first is lower: 78.4% for the first, 85.4% for the second.

Compared with “RNA1{r(C)p.r(C)p.r(A)p.r(G)p.r(A)p.r(U)p.r(G)p.r(A)p.r(G)p.r(A)p.r(G)p.r(C)p.r(A)p.r(A)p.r(C)p.r(G)p.r(C)p.r(C)p.r(C)p.d(T)p.d(T)}|RNA2{r(G)p.r(G)p.r(G)p.r(C)p.r(G)p.r(U)p.r(U)p.r(G)p.r(C)p.r(U)p.r(C)p.r(U)p.r(C)p.r(A)p.r(U)p.r(C)p.r(U)p.r(G)p.r(G)p.d(T)p.d(T)}$$$RNA1{StrandType:ss}|RNA2{StrandType:as}$”, “RNA1{r(C)p.r(C)p.r(U)p.r(A)p.r(A)p.r(U)p.r(G)p.r(U)p.r(A)p.r(G)p.r(A)p.r(C)p.r(A)p.r(A)p.r(G)p.r(U)p.r(U)p.r(G)p.r(G)p.d(T)p.d(T)}|RNA2{r(C)p.r(C)p.r(A)p.r(A)p.r(C)p.r(U)p.r(U)p.r(G)p.r(U)p.r(C)p.r(U)p.r(A)p.r(C)p.r(A)p.r(U)p.r(U)p.r(A)p.r(G)p.r(G)p.d(A)p.d(T)}$$$RNA1{StrandType:ss}|RNA2{StrandType:as}$” is higher in normalised inhibition (eCFP-eYFP dual reporter): 65.8% for the first, 69.4% for the second.

Compared with “RNA1{r(A)p.r(C)p.r(U)p.r(U)p.r(G)p.r(A)p.r(A)p.r(C)p.r(U)p.r(A)p.r(U)p.r(U)p.r(C)p.r(C)p.r(U)p.r(U)p.r(C)p.r(C)p.r(A)p.d(T)p.d(T)}|RNA2{r(U)p.r(G)p.r(G)p.r(A)p.r(A)p.r(G)p.r(G)p.r(A)p.r(A)p.r(U)p.r(A)p.r(G)p.r(U)p.r(U)p.r(C)p.r(A)p.r(A)p.r(G)p.r(U)p.d(T)p.d(T)}$$$RNA1{StrandType:ss}|RNA2{StrandType:as}$”, “RNA1{r(U)p.r(C)p.r(C)p.r(A)p.r(G)p.r(A)p.r(U)p.r(G)p.r(A)p.r(U)p.r(C)p.r(C)p.r(A)p.r(U)p.r(U)p.r(A)p.r(G)p.r(C)p.r(A)p.d(T)p.d(T)}|RNA2{r(U)p.r(G)p.r(C)p.r(U)p.r(A)p.r(A)p.r(U)p.r(G)p.r(G)p.r(A)p.r(U)p.r(C)p.r(A)p.r(U)p.r(C)p.r(U)p.r(G)p.r(G)p.r(A)p.d(T)p.d(T)}$$$RNA1{StrandType:ss}|RNA2{StrandType:as}$” is lower in normalised inhibition (eCFP-eYFP dual reporter): 96.1% for the first, 85.9% for the second.

Compared with “RNA1{r(U)p.r(U)p.r(U)p.r(A)p.r(A)p.r(A)p.r(C)p.r(U)p.r(U)p.r(G)p.r(A)p.r(A)p.r(C)p.r(U)p.r(A)p.r(U)p.r(U)p.r(C)p.r(C)p.d(T)p.d(T)}|RNA2{r(G)p.r(G)p.r(A)p.r(A)p.r(U)p.r(A)p.r(G)p.r(U)p.r(U)p.r(C)p.r(A)p.r(A)p.r(G)p.r(U)p.r(U)p.r(U)p.r(A)p.r(A)p.r(A)p.d(A)p.d(G)}$$$RNA1{StrandType:ss}|RNA2{StrandType:as}$”, “RNA1{r(C)p.r(U)p.r(U)p.r(G)p.r(A)p.r(A)p.r(C)p.r(U)p.r(A)p.r(U)p.r(U)p.r(C)p.r(C)p.r(U)p.r(U)p.r(C)p.r(C)p.r(A)p.r(G)p.d(T)p.d(T)}|RNA2{r(C)p.r(U)p.r(G)p.r(G)p.r(A)p.r(A)p.r(G)p.r(G)p.r(A)p.r(A)p.r(U)p.r(A)p.r(G)p.r(U)p.r(U)p.r(C)p.r(A)p.r(A)p.r(G)p.d(T)p.d(T)}$$$RNA1{StrandType:ss}|RNA2{StrandType:as}$” is higher in normalised inhibition (eCFP-eYFP dual reporter): 29.9% for the first, 84.8% for the second.

Going from “RNA1{r(C)p.r(A)p.r(U)p.r(C)p.r(A)p.r(A)p.r(A)p.r(G)p.r(C)p.r(C)p.r(G)p.r(A)p.r(A)p.r(C)p.r(C)p.r(A)p.r(G)p.r(A)p.r(U)p.d(T)p.d(T)}|RNA2{r(A)p.r(U)p.r(C)p.r(U)p.r(G)p.r(G)p.r(U)p.r(U)p.r(C)p.r(G)p.r(G)p.r(C)p.r(U)p.r(U)p.r(U)p.r(G)p.r(A)p.r(U)p.r(G)p.d(C)p.d(C)}$$$RNA1{StrandType:ss}|RNA2{StrandType:as}$” to “RNA1{r(G)p.r(A)p.r(A)p.r(C)p.r(U)p.r(A)p.r(U)p.r(U)p.r(C)p.r(C)p.r(U)p.r(U)p.r(C)p.r(C)p.r(A)p.r(G)p.r(A)p.r(A)p.r(G)p.d(T)p.d(T)}|RNA2{r(C)p.r(U)p.r(U)p.r(C)p.r(U)p.r(G)p.r(G)p.r(A)p.r(A)p.r(G)p.r(G)p.r(A)p.r(A)p.r(U)p.r(A)p.r(G)p.r(U)p.r(U)p.r(C)p.d(A)p.d(A)}$$$RNA1{StrandType:ss}|RNA2{StrandType:as}$”, the normalised inhibition (eCFP-eYFP dual reporter) rises from 84.7% to 87.5%.

Going from “RNA1{r(U)p.r(C)p.r(A)p.r(U)p.r(G)p.r(U)p.r(G)p.r(G)p.r(U)p.r(C)p.r(A)p.r(U)p.r(U)p.r(G)p.r(C)p.r(U)p.r(G)p.r(G)p.r(C)p.d(T)p.d(T)}|RNA2{r(G)p.r(C)p.r(C)p.r(A)p.r(G)p.r(C)p.r(A)p.r(A)p.r(U)p.r(G)p.r(A)p.r(C)p.r(C)p.r(A)p.r(C)p.r(A)p.r(U)p.r(G)p.r(A)p.d(A)p.d(A)}$$$RNA1{StrandType:ss}|RNA2{StrandType:as}$” to “RNA1{r(C)p.r(A)p.r(A)p.r(C)p.r(G)p.r(A)p.r(A)p.r(G)p.r(C)p.r(C)p.r(C)p.r(A)p.r(A)p.r(G)p.r(C)p.r(C)p.r(A)p.r(U)p.r(A)p.d(T)p.d(T)}|RNA2{r(U)p.r(A)p.r(U)p.r(G)p.r(G)p.r(C)p.r(U)p.r(U)p.r(G)p.r(G)p.r(G)p.r(C)p.r(U)p.r(U)p.r(C)p.r(G)p.r(U)p.r(U)p.r(G)p.d(G)p.d(T)}$$$RNA1{StrandType:ss}|RNA2{StrandType:as}$”, the normalised inhibition (eCFP-eYFP dual reporter) rises from 50.6% to 94%.

Compared with “RNA1{r(G)p.r(A)p.r(A)p.r(G)p.r(C)p.r(C)p.r(C)p.r(A)p.r(A)p.r(G)p.r(C)p.r(C)p.r(A)p.r(U)p.r(A)p.r(G)p.r(A)p.r(A)p.r(A)p.d(T)p.d(T)}|RNA2{r(U)p.r(U)p.r(U)p.r(C)p.r(U)p.r(A)p.r(U)p.r(G)p.r(G)p.r(C)p.r(U)p.r(U)p.r(G)p.r(G)p.r(G)p.r(C)p.r(U)p.r(U)p.r(C)p.d(G)p.d(T)}$$$RNA1{StrandType:ss}|RNA2{StrandType:as}$”, “RNA1{r(G)p.r(C)p.r(A)p.r(G)p.r(A)p.r(U)p.r(C)p.r(C)p.r(G)p.r(C)p.r(A)p.r(C)p.r(A)p.r(G)p.r(U)p.r(U)p.r(C)p.r(U)p.r(G)p.d(T)p.d(T)}|RNA2{r(C)p.r(A)p.r(G)p.r(A)p.r(A)p.r(C)p.r(U)p.r(G)p.r(U)p.r(G)p.r(C)p.r(G)p.r(G)p.r(A)p.r(U)p.r(C)p.r(U)p.r(G)p.r(C)p.d(A)p.d(G)}$$$RNA1{StrandType:ss}|RNA2{StrandType:as}$” is lower in normalised inhibition (eCFP-eYFP dual reporter): 90.3% for the first, 86.3% for the second.

Compared with “RNA1{r(A)p.r(A)p.r(G)p.r(C)p.r(C)p.r(A)p.r(U)p.r(A)p.r(G)p.r(A)p.r(A)p.r(A)p.r(C)p.r(A)p.r(G)p.r(C)p.r(U)p.r(A)p.r(G)p.d(T)p.d(T)}|RNA2{r(C)p.r(U)p.r(A)p.r(G)p.r(C)p.r(U)p.r(G)p.r(U)p.r(U)p.r(U)p.r(C)p.r(U)p.r(A)p.r(U)p.r(G)p.r(G)p.r(C)p.r(U)p.r(U)p.d(G)p.d(G)}$$$RNA1{StrandType:ss}|RNA2{StrandType:as}$”, “RNA1{r(C)p.r(U)p.r(A)p.r(A)p.r(A)p.r(G)p.r(U)p.r(A)p.r(C)p.r(G)p.r(U)p.r(U)p.r(U)p.r(C)p.r(A)p.r(U)p.r(G)p.r(A)p.r(C)p.d(T)p.d(T)}|RNA2{r(G)p.r(U)p.r(C)p.r(A)p.r(U)p.r(G)p.r(A)p.r(A)p.r(A)p.r(C)p.r(G)p.r(U)p.r(A)p.r(C)p.r(U)p.r(U)p.r(U)p.r(A)p.r(G)p.d(G)p.d(G)}$$$RNA1{StrandType:ss}|RNA2{StrandType:as}$” is lower in normalised inhibition (eCFP-eYFP dual reporter): 90.4% for the first, 79.5% for the second.
